Counter-ions that a name gives are not always drawn.
Legend:
Format in all cases: cell-based
human CCR2 = biological target: T1, human CCR2 (Homo sapiens, UniProt P41597); assay: Functional Ca2+ release test (B-1); conditions: Chem-1 cell line transfected with human CCR2; 50% inhibition of the MCP-1 effect, MCP-1 at EC50 (about 5 nM); in some cases means of several determinations
T1 construct: host or cells: Chem-1 cell line
T1 sequence (P41597 1-360 isoform P41597-2): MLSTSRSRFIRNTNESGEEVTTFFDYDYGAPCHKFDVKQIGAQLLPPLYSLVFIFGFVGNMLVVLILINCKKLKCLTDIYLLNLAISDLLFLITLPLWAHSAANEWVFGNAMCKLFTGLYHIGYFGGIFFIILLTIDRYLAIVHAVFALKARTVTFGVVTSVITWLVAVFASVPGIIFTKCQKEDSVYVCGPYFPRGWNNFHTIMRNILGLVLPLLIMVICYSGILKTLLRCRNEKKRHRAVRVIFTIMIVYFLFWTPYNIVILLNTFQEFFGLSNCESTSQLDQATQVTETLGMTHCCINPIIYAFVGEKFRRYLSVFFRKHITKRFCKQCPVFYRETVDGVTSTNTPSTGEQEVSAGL
Summary of the method: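 Chem-1 cells expressing human CCR2, loaded with Fluo-4 for 60 min at 37° C, were preincubated 10 min with compound (10-point, 1:3.16 dilutions), then stimulated with MCP-1 at its predetermined EC50 (about 5 nM). Ca2+ release was monitored for 120 s. IC50 came from a 4-parameter Hill fit.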

murine CCR2 [1] = biological target: T2, murine CCR2 (Mus musculus, UniProt P51683); assay: Functional β-arrestin recruiting test with human MCP-1 (B-2a); conditions: U2OS β-arrestin cell line transfected with murine CCR2; agonist human MCP-1 at EC50 (about 3 nM); in some cases means of several determinations
T2 construct: host or cells: U2OS β-arrestin cell line
Protocol: The antagonistic action of test substances on CCR2 was determined in a β-arrestin test. The PathHunter β-arrestin GPCR test system (DiscoveRx Corporation, Ltd.) is a cell-based functional method for detecting binding of β-arrestin to an activated receptor. The molecular basis is a […] complementation measured by the enzymatic conversion of a chemiluminescent substrate. The test cell used was a U2OS β-arrestin cell line transfected with murine CCR2 (93-0543C3, DiscoveRx Corporation, Ltd.).
The test substances were dissolved in dimethyl sulphoxide (DMSO) at a concentration of 10 mM and serially diluted with DMSO in steps of 1:3.16 for a 10-point dose/activity analysis. According to the desired test concentrations, the substances were pre-diluted in Tyrode with 2 mM CaCl2 and 0.05% BSA.
The cells, cultivated in MEM Eagle (supplemented with 10% FCS, 50 U/ml of penicillin, 50 μg/ml of streptomycin, 250 μg/ml of hygromycin and 500 μg/ml of geniticin), were sown at 2000 cells/25 μl in 384 well, μCLEAR/black cell culture plates from Greiner (#781092) and incubated at 37° C. for 24 h. The sowing medium consisted of Opti-MEM (supplemented with 1% FCS, 50 U/ml of penicillin and 50 μg/ml of streptomycin). The cells were pre-incubated for 10 min with 10 μl of the test substances diluted in buffer, and 10 μl of agonist solution [human MCP-1 (PeproTech, #300-04) in Tyrode with 0.05% BSA) were then added. The human MCP-1 was employed at the concentration which corresponds to the EC50 which had been determined in a preliminary test (usually about 3 nM). After 90 min of incubation at 37° C., the solution was removed, and recruitment of β-arrestin to CCR2 was detected with the aid of the PathHunter detection reagent (93-001, DiscoveRx Corporation, Ltd.) according to the instructions of the manufacturer. Luminescence was measured after an incubation time of 60 min using a proprietary luminescence imaging measuring instrument. The molar concentration of the test substance which caused 50% inhibition of the MCP-1 effect (IC50) was determined using a 4-parameter logistic function (Hill function).

murine CCR2 [2] = biological target: T2, murine CCR2; assay: Functional β-arrestin recruiting test with murine MCP-1 (B-2b); conditions: U2OS β-arrestin cell line transfected with murine CCR2; agonist murine MCP-1; in some cases means of several determinations
Summary of the method: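 In a PathHunter β-galactosidase complementation assay, U2OS cells expressing murine CCR2 were preincubated 10 min with compound (10-point, 1:3.16 dilutions), then challenged with murine MCP-1 at its predetermined EC50 for 90 min at 37 °C. Luminescence was read after 60 min, and IC50 was fitted with a 4-parameter Hill function.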

T2 sequence (P51683 whole entry): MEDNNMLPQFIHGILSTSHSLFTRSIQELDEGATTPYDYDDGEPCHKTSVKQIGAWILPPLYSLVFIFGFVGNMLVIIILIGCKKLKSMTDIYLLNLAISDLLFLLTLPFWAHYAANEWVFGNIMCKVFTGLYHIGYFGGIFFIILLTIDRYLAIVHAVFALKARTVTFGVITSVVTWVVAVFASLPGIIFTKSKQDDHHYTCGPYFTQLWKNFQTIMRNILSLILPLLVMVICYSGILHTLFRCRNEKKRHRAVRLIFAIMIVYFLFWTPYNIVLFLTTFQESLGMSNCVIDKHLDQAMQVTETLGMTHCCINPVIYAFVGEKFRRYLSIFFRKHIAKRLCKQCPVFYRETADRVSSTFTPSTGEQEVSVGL

Row | SMILES | IC50 (human CCR2) [nM] | IC50 (murine CCR2 [1]) [nM] | IC50 (murine CCR2 [2]) [nM]
1 | Nc1[nH]ncc1-c1nc(C(F)(F)F)c(Oc2ccc(Cl)c(Cl)c2)c(=O)[nH]1 [Example 62, 2-(5-amino-1H-pyrazol-4-yl)-5-(3,4-dichlorophenoxy)-6-(trifluoromethyl)pyrimidin-4(3H)-one trifluoroacetate] | 110 | 140 | 
2 | O=c1[nH]c(CC2CCOCC2)nc(C(F)(F)F)c1Cc1ccc(Cl)c(Cl)c1 [Example 171] | 400 | 1000 | 
3 | Cc1ccc(-c2nc(C(F)(F)F)c(Oc3ccc(Cl)c(Cl)c3)c(=O)[nH]2)nc1C [Example 157, 5-(3,4-dichlorophenoxy)-2-(5,6-dimethylpyridin-2-yl)-6-(trifluoromethyl)pyrimidin-4(3H)-one] | 14 |  | 1510
4 | O=c1[nH]c(-c2ccnnc2)nc(C(F)(F)F)c1Oc1ccc(Cl)c(Cl)c1 [Example 126, 5-(3,4-dichlorophenoxy)-2-(pyridazin-4-yl)-6-(trifluoromethyl)pyrimidin-4(3H)-one] | 1120 |  | 13900
5 | CC(=O)Nc1ccc2c(-c3nc(C(F)(F)F)c(Oc4ccc(Cl)c(C(F)(F)F)c4)c(=O)[nH]3)noc2c1 [Example 209] | 22 |  | 368
6 | CNc1cccc(-c2nc(C(F)(F)F)c(Oc3ccc(Cl)c(Cl)c3)c(=O)[nH]2)n1 [Example 166, 5-(3,4-dichlorophenoxy)-2-[6-(methylamino)pyridin-2-yl]-6-(trifluoromethyl)pyrimidin-4(3H)-one] | 8.8 |  | 277
7 | COc1nn(C)cc1-c1nc(C(F)(F)F)c(Oc2ccc(Cl)c(C(F)(F)F)c2)c(=O)[nH]1 [Example 235] | 20 |  | 796
8 | O=c1[nH]c(C2CCNCC2)nc(C(F)(F)F)c1Oc1ccc(Cl)c(C(F)(F)F)c1 [Example 259, 5-[4-chloro-3-(trifluoromethyl)phenoxy]-2-(piperidin-4-yl)-6-(trifluoromethyl)pyrimidin-4(3H)-one] | 624 |  | 3530
9 | CC(C)(C)c1nncn1-c1nc(C(F)(F)F)c(Oc2ccc(Cl)c(Cl)c2)c(=O)[nH]1 [Example 251] | 76 |  | 6760
10 | CSc1ccnc(-c2nc(C(F)(F)F)c(Oc3ccc(Cl)c(Cl)c3)c(=O)[nH]2)c1 [Example 192, 5-(3,4-dichlorophenoxy)-2-[4-(methylsulphanyl)pyridin-2-yl]-6-(trifluoromethyl)pyrimidin-4(3H)-one] | 11 |  | 758
11 | COc1ccc2c(-c3nc(C(F)(F)F)c(Oc4ccc(Cl)c(C(F)(F)F)c4)c(=O)[nH]3)noc2c1 [Example 207] | 81 |  | 4490
12 | O=c1[nH]c(-c2cccnc2)nc(C(F)(F)F)c1Cc1ccc(Cl)c(C(F)(F)F)c1 [Example 165, 5-[4-chloro-3-(trifluoromethyl)benzyl]-2-(pyridin-3-yl)-6-(trifluoromethyl)pyrimidin-4(3H)-one] | 14 |  | 3370
13 | O=c1[nH]c(-c2ncccc2OC(F)(F)F)nc(C(F)(F)F)c1Oc1ccc(Cl)c(C(F)(F)F)c1 [Example 204] | 9.2 |  | 282
14 | O=c1[nH]c(-c2cccnc2)nc(C(F)(F)F)c1Oc1ccc(Cl)c(C(F)(F)F)c1 [Example 164, 5-[4-chloro-3-(trifluoromethyl)phenoxy]-2-(pyridin-3-yl)-6-(trifluoromethyl)pyrimidin-4(3H)-one] | 16 |  | 798

The next compounds have a lower IC50 (human CCR2) than those just listed; values first:

Row | IC50 (human CCR2) [nM] | IC50 (murine CCR2 [1]) [nM] | IC50 (murine CCR2 [2]) [nM] | SMILES
15 | 0.8 |  | 21700 | CN(C)c1ccc(-c2nc(C(F)(F)F)c(Oc3ccc(Cl)c(Cl)c3)c(=O)[nH]2)nc1 [Example 133, 5-(3,4-dichlorophenoxy)-2-[5-(dimethylamino)pyridin-2-yl]-6-(trifluoromethyl)pyrimidin-4(3H)-one]
16 | 0.3 |  | 27 | O=c1[nH]c(-c2ccsn2)nc(C(F)(F)F)c1Oc1ccc(Cl)c(C(F)(F)F)c1 [Example 234]
17 | 1.8 |  | 196 | CS(=O)(=O)c1cccnc1-c1nc(C(F)(F)F)c(Oc2ccc(Cl)c(C(F)(F)F)c2)c(=O)[nH]1 [Example 266, 5-[4-Chloro-3-(trifluoromethyl)phenoxy]-2-[3-(methylsulphonyl)pyridin-2-yl]-6-(trifluoromethyl)pyrimidin-4(3H)-one]
18 | 3.3 |  | 246 | Cn1nc(-c2nc(C(F)(F)F)c(Oc3ccc(Cl)c(C(F)(F)F)c3)c(=O)[nH]2)c2c(Cl)cccc21 [Example 142, 2-(4-chloro-1-methyl-1H-indazol-3-yl)-5-[4-chloro-3-(trifluoromethyl)phenoxy]-6-(trifluoromethyl)pyrimidin-4(3H)-one]
19 | 1.7 |  | 585 | COc1cccnc1-c1nc(C(F)(F)F)c(Oc2ccc(C)c(Cl)c2)c(=O)[nH]1 [Example 196, 5-(3-chloro-4-methylphenoxy)-2-(3-methoxypyridin-2-yl)-6-(trifluoromethyl)pyrimidin-4(3H)-one]
20 | 6.4 |  | 164 | O=c1[nH]c(-c2nsc(Cl)c2Cl)nc(C(F)(F)F)c1Oc1ccc(Cl)c(Cl)c1 [Example 227]
21 | 0.7 |  | 84 | Cc1cc(-c2nc(C(F)(F)F)c(Oc3ccc(Cl)c(C(F)(F)F)c3)c(=O)[nH]2)nn1C [Example 170, 5-[4-chloro-3-(trifluoromethyl)phenoxy]-2-(1,5-dimethyl-1H-pyrazol-3-yl)-6-(trifluoromethyl)pyrimidin-4(3H)-one]
22 | 3.9 |  | 584 | CCc1cc(-c2nc(C(F)(F)F)c(Oc3ccc(Cl)c(Cl)c3)c(=O)[nH]2)no1 [Example 218]
23 | 0.7 |  | 7.9 | O=c1[nH]c(-c2ncccc2Br)nc(C(F)(F)F)c1Oc1ccc(Cl)c(Cl)c1 [Example 181, 2-(3-bromopyridin-2-yl)-5-(3,4-dichlorophenoxy)-6-(trifluoromethyl)pyrimidin-4(3H)-one]
24 | 2.9 |  | 145 | COc1cc(C)nc(-c2nc(C(F)(F)F)c(Oc3ccc(Cl)c(Cl)c3)c(=O)[nH]2)n1 [Example 183, 5-(3,4-dichlorophenoxy)-4′-methoxy-6′-methyl-6-(trifluoromethyl)-2,2′-bipyrimidin-4(3H)-one]
25 | 0.7 |  | 526 | COc1cccc(-c2nc(C(F)(F)F)c(Oc3ccc(Cl)c(C(F)(F)F)c3)c(=O)[nH]2)n1 [Example 149, 5-[4-chloro-3-(trifluoromethyl)phenoxy]-2-(6-methoxypyridin-2-yl)-6-(trifluoromethyl)pyrimidin-4(3H)-one]
26 | 0.9 |  | 39 | COc1csnc1-c1nc(C(F)(F)F)c(Oc2ccc(Cl)c(C(F)(F)F)c2)c(=O)[nH]1 [Example 238]
27 | 0.7 |  | 244 | COc1cc(OC)nc(-c2nc(C(F)(F)F)c(Oc3ccc(Cl)c(Cl)c3)c(=O)[nH]2)n1 [Example 156, 5-(3,4-dichlorophenoxy)-4′,6′-dimethoxy-6-(trifluoromethyl)-2,2′-bipyrimidin-4(3H)-one]
28 | 0.7 |  | 229 | O=c1[nH]c(-c2n[nH]c3ccccc23)nc(C(F)(F)F)c1Oc1ccc(Cl)c(Cl)c1 [Example 139, 5-(3,4-Dichlorophenoxy)-2-(1H-indazol-3-yl)-6-(trifluoromethyl)pyrimidin-4(3H)-one]
29 | 0.3 |  | 37 | COc1nccnc1-c1nc(C(F)(F)F)c(Oc2ccc(Cl)c(C(F)(F)F)c2)c(=O)[nH]1 [Example 116]
